From US20030216571A1, “Tricyclic compounds” (priority 1999, published 2003)

Key:
Leukotriene D4 receptor = molecular target: T1, Leukotriene D4 receptor (Cavia porcellus, UniProt Q2NNR5); assay: Leukotriene D4 receptor binding test; conditions: binding inhibition constant (Ki) vs [3H] LTD4 0.2 nM, lung cell membrane fraction from guinea pigs, 25° C. for 30 minutes; for Ki: read-out: pKi value (converted)
T1 construct: As a receptor sample, a lung cell membrane fraction from guinea pigs was used; from tissue; host or cells: lung membrane fraction of Hartley male guinea pigs
T1 sequence (Q2NNR5 1-340): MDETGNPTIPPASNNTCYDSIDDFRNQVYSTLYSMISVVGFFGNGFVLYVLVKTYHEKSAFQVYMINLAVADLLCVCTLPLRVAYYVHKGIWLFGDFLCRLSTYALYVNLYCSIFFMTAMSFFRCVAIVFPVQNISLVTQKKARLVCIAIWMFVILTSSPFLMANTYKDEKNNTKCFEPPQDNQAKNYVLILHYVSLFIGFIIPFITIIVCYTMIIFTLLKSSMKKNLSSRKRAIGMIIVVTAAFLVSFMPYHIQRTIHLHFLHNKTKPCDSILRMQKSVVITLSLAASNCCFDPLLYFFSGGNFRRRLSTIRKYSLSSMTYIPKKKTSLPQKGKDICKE
Protocol: Leukotriene D4 Receptor Binding Test
As a receptor sample, a lung cell membrane fraction from guinea pigs was used. Preparation of the membrane fraction was carried out according to the method of Ahn et al. (Eur. J. Pharmacol., 127, 153-155 (1986)). Lungs of Hartley male guinea pigs (400 to 500 g body weight, Nippon SLC Co.) were extracted, and perfused with a physiological saline, and then, adding 10 mM of PIPES, 10 mM of MgCl2 and 10 mM of CaCl2 buffer (pH 7.5) to the lung tissue and the mixture was homogenized. This homogenate was centrifuged at 70,000 xg for 10 minutes to obtain a membrane fraction.
Leukotriene D4 (LTD4) recepter binding test was carried out according to the method of Aharony, et al. (J. Pharmacol. Expl.Ther., 243, 921-926 (1987)). To 0.42 mg of the receptor sample were added 10 mM of PIPES, 10 mM of MgCl2 and 10 mM of CaCl2 buffer (pH 7.5) to make the total amount of 480 μl, and 10 μl of [^3H] LTD4 (NEN Life Science Products Co.) and 10 μl of a Test compound in dimethylsulfoxide were added to the mixture, and the resulting mixture was incubated at 25° C. for 30 minutes. The mixtures thus incubated were filtered through a glass fiber filter (Whatman Co., GF/C) using cell harvester (Brandel Co., M-30R). The filter were washed with 10 mM of Tris. and 100 mM of NaCl buffer (pH 7.5), and 5 ml of a liquid scintillator (NACALAI TESQUE INC., clearsol I), and radioactivity was measured by a liquid scintillation analyzer (Packard Co., 2000CA). When a dissociation constant (Kd) of LTD4 was to be obtained, [^3H] LTD4 with 0.03 to 0.5 nM was used, and 1 μM of non-radioactive LTD4 was added. When a binding inhibition constant (Ki) of the Test compound is to be meaured, [^3H] LTD4 with 0.2 nM was used. Kd and Ki are calculated according to the method of Bennett et al. (Neurotransmitter Receptor Binding, 2nd ed., edited by H. I. Yamamura et al., pp. 61-89, Raven Press (1985)).

[1] = test system: Leukotriene D4 induced respiratory constriction; assay: Leukotriene D4 induced respiratory constriction test; type: in vivo; conditions: p.o. 1 hr before i.v. LTD4; anesthetized Hartley male guinea pigs; respiratory inner pressure
Protocol: Leukotriene D4 Induced Respiratory Constriction Test
Respiratory constriction was measured by modifying the method of Konzett and Rossler (Arch. Exp. Pathol. Pharmakol., 195, pp. 71-74 (1940)). Hartley male guinea pigs (400 to 500 g body weight, Nippon SLC Co.) were anesthetized with pentobarbital (50 mg/kg, s.c.), and a cannula was inserted into the trachea to carry out artificial ventilation with an artificial ventilator (manufactured by Harvard Co., Model 683). An inner pressure of the respiratory tract was measured by a differential pressure transducer (Nihon Koden, TP-603T) connected to the respiratory cannula and it is used as an index of respiratory constriction.
LTD4 (0.03, 0.06, 0.13, 0.25, 0.5, 1 and 2 μg/kg, Sigma Co.) was intravenously administered from a cannula inserted into the right jugular vein from a low dose with an interval of 5 minutes to cause a respiratory constriction reaction and an increased amount of a respiratory inner pressure was measured. Test compound was suspended in 0.5% sodium carboxymethyl cellulose aqueous solution, and orally administered 1 hour before administration of LTD4. Animals were fasted for 24 hours before administration of the Test compound.
A2=(Dose of Compound administered)/{(ED50 of group to which Compound was added)/(ED50 of control group)−1}

## C[C@@H](CSC1c2ccccc2COc2ccc(/C=C/c3ccc4ccc(F)cc4n3)cc21)C(=O)[O-].[Na+] (stereo partly drawn) [Example 19, Sodium 3-{[2-[(E)-2-(7-fluoro-2-quinolinyl)ethenyl]-6,11-dihydrodibenz[b,e]oxepin-11-yl]thio}-2-(R)-methylpropionate]
Leukotriene D4 receptor
  Ki: 0.2 nM
[1]
  A2 (dose of Test compound required for shifting two-times the LTD4 dose-reaction curve of control group to higher dose side): 2.4 µg/kg
other
  melting point: 195 to 205 °C

## O=C([O-])CC1(CSC2c3ccccc3COc3ccc(/C=C/c4ccc5cc(F)c(F)cc5n4)cc32)CC1.[Na+] (centres unmarked) [Example 7 (b), Sodium {1-[[2-[(E)-2-(6,7-difluoro-2-quinolinyl)ethenyl]-6,11-dihydrodibenz[b,e]oxepin-11-yl]thiomethyl]cyclopropyl}acetate]
Leukotriene D4 receptor
  Ki: 0.2 nM
[1]
  A2 (dose of Test compound required for shifting two-times the LTD4 dose-reaction curve of control group to higher dose side): 3.5 µg/kg
other
  melting point: 137 to 139 °C

## Sodium [2-[(E)-2-(6,7-difluoro-2-quinolinyl)ethenyl]-6,11-dihydrodibenz[b,e]oxepin-11-yl]thioacetate [Example 4]
Leukotriene D4 receptor
  pKi value: 9.8
[1]
  A2 (dose of Test compound required for shifting two-times the LTD4 dose-reaction curve of control group to higher dose side): 3.7 µg/kg

## C#Cc1cccc2c1COc1ccc(/C=C/c3ccc4cc(F)c(F)cc4n3)cc1C2SCCC(=O)[O-].[Na+] (centres unmarked) [Example 15, Sodium 3-{[2-[(E)-2-(6,7-difluoro-2-quinolinyl)ethenyl]-7-ethynyl-6,11-dihydrodibenz[b,e]oxepin-11-yl]thio}propionate]
Leukotriene D4 receptor
  Ki: 0.158 nM
[1]
  A2 (dose of Test compound required for shifting two-times the LTD4 dose-reaction curve of control group to higher dose side): 0.8 µg/kg
other
  melting point: 186 to 189 °C

## O=C(O)C(F)(F)F.O=C(O)CC1(CSC2c3cc(/C=C/c4ccc5cc(F)c(F)cc5n4)ccc3OCc3c(F)cccc32)CC1 (centres unmarked) [Example 3, {1-[[2-[(E)-2-(6,7-difluoro-2-quinolinyl)ethenyl]-7-fluoro-6,11-dihydrodibenz[b,e]oxepin-11-yl]thiomethyl]cyclopropyl}acetic acid trifluoroacetic acid salt]
Leukotriene D4 receptor
  Ki: 0.158 nM
[1]
  A2 (dose of Test compound required for shifting two-times the LTD4 dose-reaction curve of control group to higher dose side): 3.6 µg/kg
other
  melting point: 174 to 179 °C

## O=C([O-])CC1(CSC2c3ccccc3COc3ccc(/C=C/c4ccc5c(F)c(F)c(F)cc5n4)cc32)CC1.[Na+] (centres unmarked) [Example 35 (b), Sodium {1-[[2-[(E)-2-(5,6,7-trifluoro-2-quinolinyl)ethenyl]-6,11-dihydrodibenz[b,e]oxepin-11-yl]thiomethyl]cyclopropyl}acetate]
Leukotriene D4 receptor
  Ki: 0.398 nM
[1]
  A2 (dose of Test compound required for shifting two-times the LTD4 dose-reaction curve of control group to higher dose side): 6.6 µg/kg
other
  melting point: 195 to 198 °C

## O=C(O)CCSC1c2cc(/C=C/c3ccc4cc(F)c(F)cc4n3)ccc2OCc2c(F)cccc21 (centres unmarked) [Example 12, 3-{[2-[(E)-2-(6,7-difluoro-2-quinolinyl)ethenyl]-7-fluoro-6,11-dihydrodibenz[b,e]oxepin-11-yl]thio}propionic acid]
Leukotriene D4 receptor
  Ki: 0.158 nM
[1]
  A2 (dose of Test compound required for shifting two-times the LTD4 dose-reaction curve of control group to higher dose side): 4.9 µg/kg
other
  melting point: 224 to 227 °C

## C[C@@H](CSC1c2ccccc2COc2ccc(/C=C/c3ccc4c(n3)CCCC4)cc21)C(=O)[O-].[Na+] (stereo partly drawn) [Example 26, Sodium 3-{[2-[(E)-2-(5,6,7,8-tetrahydro-2-quinolinyl)ethenyl]-6,11-dihydrodibenz[b,e]oxepin-11-yl]thio}-2-(R)-methylpropionate]
Leukotriene D4 receptor
  Ki: 0.316 nM
other
  melting point: 168 to 173 °C

## O=C([O-])CCCC1c2ccccc2COc2ccc(/C=C/c3ccc4cc(F)c(F)cc4n3)cc21.[Na+] (centres unmarked) [Example 51 (c), Sodium 4-[2-[(E)-2-(6,7-difluoro-2-quinolinyl)ethenyl]-6,11-dihydrodibenz[b,e]oxepin-11-yl]butanoate]
Leukotriene D4 receptor
  Ki: 0.158 nM
[1]
  A2 (dose of Test compound required for shifting two-times the LTD4 dose-reaction curve of control group to higher dose side): 3.6 µg/kg

## O=C([O-])CCSC1c2cc(/C=C/c3ccc4cc(F)c(F)cc4n3)ccc2OCc2c1cccc2C(F)(F)F.[Na+] (centres unmarked) [Example 14, Sodium 3-{[2-[(E)-2-(6,7-difluoro-2-quinolinyl)ethenyl]-7-trifluoromethyl-6,11-dihydrodibenz[b,e]oxepin-11-yl]thio}propionate]
Leukotriene D4 receptor
  Ki: 0.631 nM
[1]
  A2 (dose of Test compound required for shifting two-times the LTD4 dose-reaction curve of control group to higher dose side): 4.4 µg/kg

## O=C([O-])CCSC1c2ccccc2COc2ccc(/C=C/c3ccc4cc(F)c(Cl)cc4n3)cc21.[Na+] (centres unmarked) [Example 2 (b), Sodium 3-{[2-[(E)-2-(7-chloro-6-fluoro-2-quinolinyl)ethenyl]-6,11-dihydrodibenz[b,e]oxepin-11-yl]thio}propionate]
Leukotriene D4 receptor
  Ki: 0.316 nM
[1]
  A2 (dose of Test compound required for shifting two-times the LTD4 dose-reaction curve of control group to higher dose side): 1.7 µg/kg

## Cc1ccc(/C=C/c2ccc3c(c2)C(SCCC(=O)[O-])c2ccccc2CO3)nc1C(C)C.[Na+] (centres unmarked)
other
  melting point: 137 to 139 °C

## O=C(O)CCSC1c2ccccc2COc2ccc(OCc3ccc4cc(F)c(Cl)cc4n3)cc21 (centres unmarked) [Compound A, 11-(2-carboxyethyl)thio-2-(7-chloro-6-fluoro-quinolin-2-yl)methoxy-6,11-dihydrodibenz[b,e]oxepine, reference compound]
Leukotriene D4 receptor
  Ki: 0.316 nM
[1]
  A2 (dose of Test compound required for shifting two-times the LTD4 dose-reaction curve of control group to higher dose side): 16 µg/kg

## O=C(O)CCSC1c2ccccc2COc2ccc(/C=C/c3ccc4ccc(Cl)cc4n3)cc21 (centres unmarked)
other
  melting point: 195 to 198 °C

## O=C([O-])c1ccc(SC2c3ccccc3COc3ccc(/C=C/c4ccc5cc(F)c(F)cc5n4)cc32)cc1.[Na+] (centres unmarked) [Example 10 (b), Sodium 4-{[2-[(E)-2-(6,7-difluoro-2-quinolinyl)ethenyl]-6,11-dihydrodibenz[b,e]oxepin-11-yl]thio}benzoate]
other
  melting point: 285 to 287 °C (dec.)

## CCC(CSC1c2ccccc2COc2ccc(/C=C/c3ccc4cc(F)c(F)cc4n3)cc21)C(=O)[O-].[Na+] (centres unmarked) [Example 45, Sodium 3-{[2-[(E)-2-(6,7-difluoro-2-quinolinyl)ethenyl]-6,11-dihydrodibenz[b,e]oxepin-11-yl]thio}-2-ethylpropionate]
Leukotriene D4 receptor
  Ki: 0.158 nM
other
  melting point: 209 to 218 °C

## O=C([O-])CC1(CSC2c3ccccc3COc3ccc(/C=C/c4nc5cc(F)ccc5s4)cc32)CC1.[Na+] (centres unmarked)
other
  melting point: 155 to 157 °C

## CC(C)(CC(=O)O)SC1c2ccccc2COc2ccc(/C=C/c3ccc4cc(F)c(F)cc4n3)cc21 (centres unmarked) [Example 58, 3-{[2-[(E)-2-(6,7-difluoro-2-quinolinyl)ethenyl]-6,11-dihydrodibenz[b,e]oxepin-11-yl]thio}-3-methylbutanoic acid]
Leukotriene D4 receptor
  Ki: 0.501 nM
[1]
  A2 (dose of Test compound required for shifting two-times the LTD4 dose-reaction curve of control group to higher dose side): 6.4 µg/kg
